Data set [1] can be described thus: Hygroscopic stability for 24 hours (P-XRD). The format is physicochemical. The note with it: kept in the desiccator for 24 hours; 3.0 gms sample. On the procedure:
Hygroscopic Stability for 24 Hours:
Samples of crystalline form-S of Cabozantinib (S)-malate (3.0 gms) is kept in the desiccator for 24 hours.
(§1) PXRD analysis of compounds produced by the present invention were carried out using BRUKER IDS ADVANCE/AXS X-Ray diffractometer using Cu Kα radiation of wavelength 1.5406 A° and continuous scan speed of 0.03°/min.

The nature of data set [2]: Thermal stability at 60° C. (P-XRD). It is filed as physicochemical. The following applies: heating in a vacuum dryer at 60° C. for 24 hours; 3.0 gms sample. As to the method: Thermal Stability at 60° C.:
Samples of crystalline form-S of Cabozantinib (S)-malate (3.0 gms) is subjected to heating in a vacuum dryer at 60° C. for 24 hours.
as §1

For the molecule `COc1cc2nccc(Oc3ccc(NC(=O)C4(C(=O)Nc5ccc(F)cc5)CC4)cc3)c2cc1OC.O=C(O)C[C@H](O)C(=O)O` [N-(4-(6,7-dimethoxyquinolin-4-yloxy)phenyl)-N′-(4-fluorophenyl)cyclopropane-1,1-dicarboxamide (S)-malate], in data set [1], the “Hygroscopic stability for 24 hours by P-XRD pattern” value is “stable”. Also, the “Thermal stability at 60° C. by P-XRD pattern” value in data set [2] is “stable”.

These data come from US11261160B2, “Process for the preparation of N-(4-(6,7-dimethoxyquinolin-4-yloxy)phenyl)-N′-(4-fluorophenyl)cyclopropane-1, 1-dicarboxamide, (2S)-hydroxybutanedioate and its polymorphs thereof” (MSN LABORATORIES PRIVATE LIMITED, R&D CENTER, priority 2016, dated 2022).
